One test has as its system Candida-Zellen. Put plainly: Antimycotic in-vivo activity (oral) in mouse candidosis. Also noted: species or system Mäuse vom Typ SPF-CF1. To be noted: mice infected i.v. with 1-2 x 10^6 Candida cells; oral 10 to 100 mg/kg one hour before and seven hours after infection; survival on day 6 p.i. The protocol:
Versuchsbeschreibung: • Mäuse vom Typ SPF-CF1 wurden intravenös mit-1-2 x 10^6 logarithmisch wachsenden Candida-Zellen, die in physiologischer Kochsalzlösung suspendiert werden, infiziert. Eine Stunde vor und sieben Stunden nach der Infektion werden die Tiere mit jeweils 10 bis 100 mg/kg Körpergewicht der Präparate oral behandelt.
Unbehandelte Tiere starben am 3. bis 6. Tag post infektionem. Die Überlebensrate am 6. Tag post infektionem betrug bei unbehandelten Kontrolltieren etwa 5 %.

In test [1] the test system is Dermatophyten, Schimmelpilze, Hefen. Put plainly: Antimycotic in-vitro activity, serial dilution test, overall comparison with prior-art compounds. It counts as cell-based. To be noted: compared in words with known compounds (A), (B) and (C). On the procedure: Versuchsbeschreibung: • Die in-vitro-Prüfungen wurden im Reihenverdünnungstest mit Keiminokula von durchschnittlich 5 x 10^3 bis 10^4 Keimen/ml Substrat durchgeführt. Als Nährmedium dienten • a) für Dermatophyten und Schimmelpilze: Sabourand's milieu d'epreuve • b) für Hefen: • Fleischextrakt-Traubenzucker-Bouillon.
Die Bebrütungstemperatur betrug 28 bis 37°C, die Bebrütungsdauer lag bei 24 bis 96 Stunden bei Hefen und 96 Stunden bei Dermatophyten und Schimmelpilzen.

The structures appear in SMILES notation.

As to `CCSC1(C(O)(Cn2cncn2)c2ccc(Cl)cc2)CC1` (stereo not shown) [I-1, 1-(4-Chlorphenyl)-1-[1-(ethylthio)-1-cyclopropyl]-2-(1,2,4-triazol-1-yl)-1-ethanol], the Wirkung entry in the test on Candida-Zellen was “+++++ (= sehr gute Wirkung = 90 % Überlebende am 6. Tag p.i.)”. Further, the “antimykotische Wirkung” value in test [1] is listed as “bessere antimykotische Wirkung”.

Turning to `OC(Cn1cncn1)(c1ccccc1)C1(Oc2ccc(Cl)cc2)CC1` (stereo not shown) [I-2], the Wirkung entry with Candida-Zellen is listed as “+++++ (= sehr gute Wirkung = 90 % Überlebende am 6. Tag p.i.)”. In addition, the “antimykotische Wirkung” value in test [1] is “bessere antimykotische Wirkung”.

Take `CC[S+]([O-])C1(C(O)(Cn2cncn2)c2ccc(Cl)cc2)CC1` (stereo not shown) [I-3, 1-(4-Chlorphenyl)-1-[1-(ethylsulfinyl)-1-cyclopropyl]-2-(1,2,4-triazol-1-yl)-1-ethanol]: in the test with Candida-Zellen, the Wirkung result is on record as “+++++ (= sehr gute Wirkung = 90 % Überlebende am 6. Tag p.i.)”. For the same compound, in test [1], the “antimykotische Wirkung” value is “bessere antimykotische Wirkung”.

`CCS(=O)(=O)C1(C(O)(Cn2cncn2)c2ccc(Cl)cc2)CC1` (stereo not shown) [I-4]: the Wirkung result in the test on Candida-Zellen is listed as “+++ (= Wirkung = 60 % Überlebende am 6. Tag p.i.)”. In addition, the “antimykotische Wirkung” value in test [1] was “bessere antimykotische Wirkung”.

Take `OC(Cn1cncn1)(c1ccc(Cl)cc1)C1(Oc2ccccc2)CC1` (stereo not shown) [I-5]: in the test with Candida-Zellen, the Wirkung entry is given as “+++++ (= sehr gute Wirkung = 90 % Überlebende am 6. Tag p.i.)”. In addition, in test [1], the “antimykotische Wirkung” value is listed as “bessere antimykotische Wirkung”.

Consider `CCCCSC1(C(O)(Cn2cncn2)c2ccc(Cl)cc2)CC1` (stereo not shown) [I-6], for which the Wirkung entry with Candida-Zellen is given as “++++ (= gute Wirkung = 80 % Überlebende am 6. Tag p.i.)”. Also, in test [1], the “antimykotische Wirkung” value is recorded as “bessere antimykotische Wirkung”.

In the case of `CCCCS(=O)(=O)C1(C(O)(Cn2cncn2)c2ccc(Cl)cc2)CC1` (stereo not shown) [I-7], the Wirkung result in the test with Candida-Zellen is on record as “+++++ (= sehr gute Wirkung = 90 % Überlebende am 6. Tag p.i.)”. Besides, in test [1], the “antimykotische Wirkung” value was “bessere antimykotische Wirkung”.

Regarding `OC(Cn1cncn1)(c1ccc(Cl)cc1)C1(Sc2ccc(Cl)cc2)CC1` (stereo not shown) [I-11], the “antimykotische Wirkung” value in test [1] is on record as “bessere antimykotische Wirkung”.

Consider `OC(Cn1cncn1)(c1ccc(Cl)cc1)C1(SCc2ccc(Cl)cc2)CC1` (stereo not shown) [I-13], for which, in the test with Candida-Zellen, the Wirkung result was “+++++ (= sehr gute Wirkung = 90 % Überlebende am 6. Tag p.i.)”.
